Earlier results, collected in patent US6153738A (priority 1999, dated 2000).

Tested on: Swiss Webster mice
Settings: mouse, in vivo

GCX1 X2 EPWC [contryphan-R]
symptomatology after intracranial injection into mice: stiff-tail syndrome
